Each structure is given as a SMILES string. Where two headings read alike, the source gives them in different places. Where only a bound is given, the exact number is not on record here.

By EC50 is commonly meant the concentration at which the effect is half-maximal. Usually EC90 stands for the concentration at which the effect reaches the 90% level. A higher EC90 goes with weaker potency. A word on the efflux ratio: it is a quotient of directional permeabilities that is used to spot active efflux. A word on the Papp A→B: it is how fast a substance crosses the layer from the apical side. The low end stands for slow passage, the high end for fast passage. The Papp B→A is how fast a substance crosses the layer from the basolateral side.

One data set concerns SARS-CoV-2. The data set is described as follows: Antiviral effect in iPSC-derived pneumocyte system. The conditions noted are these: iPSC pneumocytes SARS-CoV-2 antiviral effect; for perc_max_measured: maximum measured response of dose series; for perc_min_measured: minimum measured response of dose series. The class given is cell-based.
Another data set relates to iPSC pneumocytes. The data set is described as follows: iPSC pneumocytes cytotoxicity. Type of data set: cell-based. The conditions noted are these: for perc_max_measured: highest measured response of the dose series; for perc_min_measured: lowest measured response of the dose series. The source says: (§1) Supplement media-1.zip/Cytotoxicity.csv, table | column: cc10; cc50; perc_min_measured; perc_max_measured

In a further data set the test system is HeLa-ACE2 cells. The conditions noted are these: read-out: 50.0, 1440 min.
The target of a further data set is SARS-CoV-2 nsp3-mac1 (Severe acute respiratory syndrome coronavirus 2, UniProt P0DTD1). Kind of data set: biochemical.
The target in a further data set is T1, human CHRM2 (M2) (Homo sapiens, UniProt P08172).
T1 construct: purchased Eurofins Cerep (SafetyScreen44), recognised from the panel format
T1 sequence (P08172 1-466): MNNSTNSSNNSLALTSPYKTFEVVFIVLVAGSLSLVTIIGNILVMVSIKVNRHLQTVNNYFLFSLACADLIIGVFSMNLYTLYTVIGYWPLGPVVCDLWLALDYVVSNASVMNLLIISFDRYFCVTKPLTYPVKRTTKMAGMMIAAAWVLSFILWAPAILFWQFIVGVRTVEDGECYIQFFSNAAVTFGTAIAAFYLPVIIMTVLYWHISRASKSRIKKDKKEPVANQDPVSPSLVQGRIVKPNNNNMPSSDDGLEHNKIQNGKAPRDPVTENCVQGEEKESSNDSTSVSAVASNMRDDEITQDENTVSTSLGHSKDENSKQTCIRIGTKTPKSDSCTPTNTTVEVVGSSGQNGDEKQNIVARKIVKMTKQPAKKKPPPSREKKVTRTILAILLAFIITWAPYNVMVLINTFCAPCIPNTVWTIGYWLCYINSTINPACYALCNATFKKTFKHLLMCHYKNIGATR
The data set is described as follows: Eurofins CEREP panel, M2. The class given is binding. The conditions noted are these: for inhibition at 10 µM: read-out: perc_inhibition (% inhibition of the binding of a ligand specific for each target).

A short description of data set [1]: Vero E6/TMPRSS2 cytotoxicity with P-gp inhibitor. The class given is cell-based. The conditions noted are these: African green monkey, Vero E6/TMPRSS2 cells, with P-gp inhibitor (name and concentration not stated).
Source text: as §1

Another data set deals with Vero E6/TMPRSS2. The data set is described as follows: Vero E6/TMPRSS2 cytotoxicity with P-gp inhibitor. The class given is cell-based. The conditions noted are these: for perc_max_measured: highest measured response of the dose series; for perc_min_measured: lowest measured response of the dose series.
Source text: as §1

The target of the next data set is T2, beta1 (h) (Homo sapiens, UniProt P08588).
T2 construct: purchased Eurofins Cerep (SafetyScreen44), recognised from the panel format
The data set is described as follows: In vitro CEREP profiling, beta1 (h) (agonist radioligand). Type of data set: binding. The conditions noted are these: test compound 10 uM; for inhibition at 10 µM: read-out: perc_inhibition (% inhibition of the binding of a ligand specific for each target). The source says:
(§2) Supplement media-1.zip/Safety_Panel_Profile.csv, table | column: perc_inhibition

For the next data set, the system named is BZD (central). The data set is described as follows: In vitro CEREP profiling, BZD (central) (agonist radioligand). The class given is binding. The conditions noted are these: test compound 10 uM.
Source text: as §2

Another data set relates to Na+ channel (site 2). Kind of data set: In vitro CEREP profiling, Na+ channel (site 2) (antagonist radioligand). The class given is binding. The conditions noted are these: test compound concentration 10 uM.
Source text: as §2

A further data set deals with NaV1.5 (Homo sapiens, UniProt Q14524). Kind of data set: In vitro NaV1.5 cardiotoxicity. The conditions noted are these: top test concentration 30 uM. The text has this: Supplement media-1.zip/Cardiotoxicity.csv, table | column: ic50_rest_state; ic50_use_dep_block; perc_inhibition_rest_state; perc_inhibition_use_dep_block
A further data set can be described thus: in vitro. The conditions noted are these: human, HeLa-ACE2 cells (uninfected).
The next data set relates to MDR1. The data set is described as follows: Permeability Papp (AB) MDR1/MDCKII. The conditions noted are these: dog; for Papp A→B: A to B; for Papp B→A: B to A.
Another data set deals with hERG (Homo sapiens, UniProt Q12809). Kind of data set: In vitro CEREP profiling, Potassium Channel hERG (human)- [3H] Dofetilide. Details: purchased Eurofins Cerep (SafetyScreen44), recognised from the panel format. The conditions noted are these: hERG potassium channel binding assay, probe [3H] Dofetilide, test compound concentration 10 uM, read-out: perc_inhibition, % inhibition of the binding of a ligand specific for each target. Type of data set: binding.
Source text: as §2
A general note: Block of hERG is tested as a sign of cardiac risk.

[2] abbreviates: protocol iPSC pneumocytes cytotoxicity.
[3] abbreviates: Severe acute respiratory syndrome coronavirus 2.
Where [4] appears, read: M2 (h) (antagonist radioligand), test compound concentration 10 uM.
Where [5] appears, read: NaV1.5, rest state, read-out: ic50_rest_state.
[6] abbreviates: NaV1.5, use dependent block, read-out: ic50_use_dep_block.
Where [7] appears, read: MDCK-MDR1, efflux_ratio, In vitro MDR1-MDCKII permeability, no inhibitor.
[8] abbreviates: MDCK-MDR1, papp_a_to_b_mean, In vitro MDR1-MDCKII permeability, no inhibitor.
The mark [9] stands for this setting: MDCK-MDR1, papp_b_to_a_mean, In vitro MDR1-MDCKII permeability, no inhibitor.

T2 sequence (P08588 whole entry): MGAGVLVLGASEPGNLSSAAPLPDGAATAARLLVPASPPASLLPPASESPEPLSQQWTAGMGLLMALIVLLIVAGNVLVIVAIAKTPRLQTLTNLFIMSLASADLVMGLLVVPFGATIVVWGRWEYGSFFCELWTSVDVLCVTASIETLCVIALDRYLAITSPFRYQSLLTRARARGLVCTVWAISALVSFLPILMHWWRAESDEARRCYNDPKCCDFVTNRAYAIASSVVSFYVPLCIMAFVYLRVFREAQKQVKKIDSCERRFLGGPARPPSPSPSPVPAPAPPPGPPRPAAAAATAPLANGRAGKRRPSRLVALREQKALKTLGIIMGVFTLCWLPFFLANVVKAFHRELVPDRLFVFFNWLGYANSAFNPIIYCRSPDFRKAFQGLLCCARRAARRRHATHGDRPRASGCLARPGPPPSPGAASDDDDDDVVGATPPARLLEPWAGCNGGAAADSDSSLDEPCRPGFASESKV
Chain of NaV1.5 (Q14524 whole entry): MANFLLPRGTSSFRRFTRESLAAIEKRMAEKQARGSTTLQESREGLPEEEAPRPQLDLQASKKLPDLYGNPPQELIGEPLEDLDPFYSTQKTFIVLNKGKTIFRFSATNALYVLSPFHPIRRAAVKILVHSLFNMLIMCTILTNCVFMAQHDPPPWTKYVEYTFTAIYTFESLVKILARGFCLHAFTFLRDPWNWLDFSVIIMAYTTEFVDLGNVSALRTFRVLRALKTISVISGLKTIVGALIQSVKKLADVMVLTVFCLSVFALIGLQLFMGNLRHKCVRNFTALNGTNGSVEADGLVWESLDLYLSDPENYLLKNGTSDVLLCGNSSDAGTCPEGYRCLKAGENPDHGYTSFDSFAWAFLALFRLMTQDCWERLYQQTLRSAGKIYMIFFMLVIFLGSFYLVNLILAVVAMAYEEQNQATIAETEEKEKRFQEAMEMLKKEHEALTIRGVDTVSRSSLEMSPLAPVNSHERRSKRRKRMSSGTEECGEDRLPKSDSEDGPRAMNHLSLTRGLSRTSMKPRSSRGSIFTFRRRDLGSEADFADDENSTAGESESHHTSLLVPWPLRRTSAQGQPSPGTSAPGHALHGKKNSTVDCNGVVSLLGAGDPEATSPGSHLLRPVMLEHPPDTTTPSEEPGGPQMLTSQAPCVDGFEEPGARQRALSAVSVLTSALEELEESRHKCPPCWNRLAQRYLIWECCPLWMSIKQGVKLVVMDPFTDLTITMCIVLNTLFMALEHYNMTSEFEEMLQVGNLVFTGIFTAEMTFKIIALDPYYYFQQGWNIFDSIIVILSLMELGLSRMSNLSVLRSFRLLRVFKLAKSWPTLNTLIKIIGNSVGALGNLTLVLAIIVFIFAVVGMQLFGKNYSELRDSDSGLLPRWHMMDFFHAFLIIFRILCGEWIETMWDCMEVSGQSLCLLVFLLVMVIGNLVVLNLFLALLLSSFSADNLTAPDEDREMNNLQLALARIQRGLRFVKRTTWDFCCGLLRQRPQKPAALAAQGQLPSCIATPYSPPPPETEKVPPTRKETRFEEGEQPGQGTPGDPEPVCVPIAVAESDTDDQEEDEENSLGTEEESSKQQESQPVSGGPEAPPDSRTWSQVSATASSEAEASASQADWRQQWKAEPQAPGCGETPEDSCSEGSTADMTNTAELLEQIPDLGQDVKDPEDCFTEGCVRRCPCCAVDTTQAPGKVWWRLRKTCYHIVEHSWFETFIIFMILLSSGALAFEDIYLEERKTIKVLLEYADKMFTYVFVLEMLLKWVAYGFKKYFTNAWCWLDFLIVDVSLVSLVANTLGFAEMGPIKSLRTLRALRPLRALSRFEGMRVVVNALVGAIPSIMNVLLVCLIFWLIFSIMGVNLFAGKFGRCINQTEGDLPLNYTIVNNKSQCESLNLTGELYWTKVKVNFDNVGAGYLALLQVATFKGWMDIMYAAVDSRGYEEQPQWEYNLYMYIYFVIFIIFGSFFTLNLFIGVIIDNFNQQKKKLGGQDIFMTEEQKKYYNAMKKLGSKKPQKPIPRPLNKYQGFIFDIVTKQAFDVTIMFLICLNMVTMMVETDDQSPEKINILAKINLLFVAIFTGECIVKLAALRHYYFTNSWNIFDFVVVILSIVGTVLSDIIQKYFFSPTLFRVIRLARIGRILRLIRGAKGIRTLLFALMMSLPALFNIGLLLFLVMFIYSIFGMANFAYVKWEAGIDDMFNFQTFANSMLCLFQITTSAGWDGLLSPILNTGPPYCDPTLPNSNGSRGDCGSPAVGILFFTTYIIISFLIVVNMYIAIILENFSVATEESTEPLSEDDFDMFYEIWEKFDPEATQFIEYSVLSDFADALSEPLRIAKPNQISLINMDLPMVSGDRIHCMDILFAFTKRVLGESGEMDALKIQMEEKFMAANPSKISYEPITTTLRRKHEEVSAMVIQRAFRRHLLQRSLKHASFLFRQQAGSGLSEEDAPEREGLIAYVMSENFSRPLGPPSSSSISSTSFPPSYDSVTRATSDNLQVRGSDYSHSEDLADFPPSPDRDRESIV
Chain of hERG (Q12809 whole entry): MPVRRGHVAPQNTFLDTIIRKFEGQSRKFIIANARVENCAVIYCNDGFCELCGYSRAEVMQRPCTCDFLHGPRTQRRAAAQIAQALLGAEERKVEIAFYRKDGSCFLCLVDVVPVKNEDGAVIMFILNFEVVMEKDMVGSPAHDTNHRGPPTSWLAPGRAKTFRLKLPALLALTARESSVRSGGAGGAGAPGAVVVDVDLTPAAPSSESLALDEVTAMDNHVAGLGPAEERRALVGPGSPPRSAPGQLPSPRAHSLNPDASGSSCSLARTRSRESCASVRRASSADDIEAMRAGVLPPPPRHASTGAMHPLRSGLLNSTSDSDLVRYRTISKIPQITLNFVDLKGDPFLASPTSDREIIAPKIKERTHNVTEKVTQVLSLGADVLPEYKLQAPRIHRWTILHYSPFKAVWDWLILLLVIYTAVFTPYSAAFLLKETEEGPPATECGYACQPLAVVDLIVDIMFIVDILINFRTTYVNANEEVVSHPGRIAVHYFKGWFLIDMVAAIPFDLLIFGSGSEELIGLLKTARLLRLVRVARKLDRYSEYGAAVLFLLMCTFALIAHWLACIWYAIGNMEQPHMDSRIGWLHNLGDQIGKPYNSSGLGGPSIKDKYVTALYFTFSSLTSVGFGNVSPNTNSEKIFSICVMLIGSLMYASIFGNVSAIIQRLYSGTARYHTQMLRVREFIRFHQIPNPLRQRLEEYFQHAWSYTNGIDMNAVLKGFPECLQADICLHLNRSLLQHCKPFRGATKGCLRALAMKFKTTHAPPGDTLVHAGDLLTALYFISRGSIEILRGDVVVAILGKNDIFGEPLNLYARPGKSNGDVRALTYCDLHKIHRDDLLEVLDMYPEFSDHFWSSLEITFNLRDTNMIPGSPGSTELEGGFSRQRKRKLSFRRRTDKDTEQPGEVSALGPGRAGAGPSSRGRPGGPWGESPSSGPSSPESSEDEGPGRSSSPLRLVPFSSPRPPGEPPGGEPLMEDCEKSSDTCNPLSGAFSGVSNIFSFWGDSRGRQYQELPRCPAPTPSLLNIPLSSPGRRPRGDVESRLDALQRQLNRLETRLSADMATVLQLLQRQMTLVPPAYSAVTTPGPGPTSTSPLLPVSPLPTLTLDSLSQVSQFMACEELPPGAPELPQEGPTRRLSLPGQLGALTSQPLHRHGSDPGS

As for `CC(C)[C@@H](Nc1ncnc2[nH]c(-c3cnn(C)c3C#N)cc12)c1ccc2c(n1)OCCO2` [ASAP-0008418], in the data set with SARS-CoV-2, the EC50 stood at 12.7 µM, the 90% effect level (EC90) was put at 15.6 µM, the perc_max_measured was 116.418% and the perc_min_measured was 5.314%. Besides, in the data set with iPSC pneumocytes (setting [2]), the perc_max_measured is given as 95.683% and the perc_min_measured is on record as 63.391%. Further, in the data set on HeLa-ACE2 cells (ASAP-0008327-001=ASAP-0008418-001), the CC50 is more than 50 µM.
As to `CC(C)C(Nc1ncnc2[nH]c(C(=O)NC3CCN(C)C3)cc12)c1ccc2c(c1)S(=O)(=O)CCC2` (stereo not shown) [ASAP-0011198], the IC50 at SARS-CoV-2 nsp3-mac1 (HTRF IC50, Figure 6, tool compounds) is 0.065 µM; at NaV1.5 (setting [5]) it was more than 30 µM; at NaV1.5 (setting [6]), more than 30 µM. The compound also yielded an EC50 in the data set with SARS-CoV-2 (setting [3]) of more than 50 µM. In the data set on SARS-CoV-2 (setting [3]), the concentration for an effect of 90% (EC90) was more than 50 µM. Further, the perc_max_measured in the data set on SARS-CoV-2 was 101.646%; in the data set with iPSC pneumocytes, 99.57%; in the data set on Vero E6/TMPRSS2 it was 120.684%. The perc_min_measured in the data set with SARS-CoV-2 stood at 52.305%; in the data set with iPSC pneumocytes, 87.748%; in the data set on Vero E6/TMPRSS2 it was 90.027%. For the same compound, the “off-target activity at human CHRM2, in words” value at human CHRM2 (M2) (CEREP panel) was “moderate”. The values for the inhibition at 10 µM at human CHRM2 (M2) (setting [4]), on beta1 (h) and at hERG were 52%, 4% and 7%, respectively. In data set [1], this compound gave a CC50 of more than 5 µM. In addition, the cc10 in the data set on Vero E6/TMPRSS2 was more than 5.0 µM. For the same compound, the results for the “perc_inhibition (% inhibition of the binding of a ligand specific for each target)” value with BZD (central) and in the data set on Na+ channel (site 2) were 38% and 16%, respectively. Further, the inhibition at 30 µM on NaV1.5 (NaV1.5, rest state, read-out: perc_inhibition_rest_state) was 11%; at NaV1.5 (NaV1.5, use dependent block, read-out: perc_inhibition_use_dep_block), 11%. For the same compound, the CC50 at 24 h in the data set “in vitro” was more than 20 µM. The efflux ratio in the data set on MDR1 (setting [7]) came to 1.3; with MDR1 (MDCK-MDR1, with Cyclosporin A, efflux_ratio_inhibitor, MDR1-MDCKII, with inhibitor Cyclosporin A), 1.7. Moreover, the Papp A→B with MDR1 (MDCK-MDR1, papp_a_to_b_mean, In vitro MDR1-MDCKII permeability, mean) was 2.94 ×10⁻⁶ cm/s; with MDR1 (setting [8]), 0.0323 ×10⁻⁶ cm/s; in the data set with MDR1 (MDCK-MDR1, with Cyclosporin A, papp_a_to_b_inhibitor_mean, MDR1-MDCKII, with inhibitor Cyclosporin A), less than 0.01 ×10⁻⁶ cm/s. For the same compound, the Papp B→A with MDR1 (setting [9]) stood at 0.0411 ×10⁻⁶ cm/s.
For the compound `Cn1ncc(-c2cc3c(N[C@@H](c4ccc5c(n4)OCCO5)C(C)(C)C)ncnc3[nH]2)c1C#N` [ASAP-0011221], the “perc_inhibition (% inhibition of the binding of a ligand specific for each target)” value is on record as 25% at human CHRM2 (M2) (setting [4]), 11% at beta1 (h), -5% with BZD (central) and 34% in the data set on Na+ channel (site 2). Further, at NaV1.5 (NaV1.5, rest state), the perc_inhibition_rest_state was 17.0%. For the same compound, the IC50 on NaV1.5 (setting [5]) and at NaV1.5 (setting [6]) was more than 30 µM throughout. On NaV1.5 (NaV1.5, use dependent block), this compound yielded a perc_inhibition_use_dep_block of 21.0%. Besides, the CC50 in the data set with HeLa-ACE2 cells (ASAP-0008327-001=ASAP-0011221-001, 50.0, 1440 min) was more than 10 µM.
On to `Cc1nn(C)cc1-c1cc2c(NC(c3ccc4c(c3)S(=O)(=O)CCC4)C(C)C)ncnc2[nH]1` (stereo not shown) [ASAP-0011446], for which the IC50 at SARS-CoV-2 nsp3-mac1 (HTRF IC50, Figure 4B, bioactive pure enantiomer) is 0.021 µM. In addition, the inhibition at 10 µM on human CHRM2 (M2) (setting [4]) was determined as 5%; on beta1 (h), 1%; on hERG, 3%. This compound also yielded a CC50 in data set [1] of more than 5 µM. In addition, in the data set with Vero E6/TMPRSS2, the cc10 is more than 5.0 µM. In the data set with Vero E6/TMPRSS2, this compound returned a perc_max_measured of 106.351%. In addition, in the data set with Vero E6/TMPRSS2, the perc_min_measured is reported as 79.435%. Moreover, the figures for the “perc_inhibition (% inhibition of the binding of a ligand specific for each target)” value in the data set on BZD (central) and in the data set on Na+ channel (site 2) were 29% and -1%, respectively. In “in vitro”, the CC50 at 24 h was more than 20 µM. Besides, the efflux ratio is 41.1 with MDR1 (setting [7]) and 21.8 in the data set with MDR1 (MDCK-MDR1, with Verapamil, efflux_ratio_inhibitor, MDR1-MDCKII, with inhibitor Verapamil). In addition, the Papp A→B in the data set with MDR1 (setting [8]) worked out at 0.0911 ×10⁻⁶ cm/s; in the data set with MDR1 (MDCK-MDR1, with Verapamil, papp_a_to_b_inhibitor_mean, MDR1-MDCKII, with inhibitor Verapamil) it was 0.216 ×10⁻⁶ cm/s. Also, the Papp B→A in the data set with MDR1 (setting [9]) was 3.7 ×10⁻⁶ cm/s; with MDR1 (MDCK-MDR1, with Verapamil, papp_b_to_a_inhibitor_mean, MDR1-MDCKII, with inhibitor Verapamil), 4.7 ×10⁻⁶ cm/s.

For the origin of these results see publication doi:10.1101/2024.08.19.608619, “Discovery of potent SARS-CoV-2 nsp3 macrodomain inhibitors uncovers lack of translation to cellular antiviral response” (bioRxiv, 2024).
